What was measured:
[1] = target: A-Raf kinase (SEQ. ID No: 1) (Homo sapiens (Human), UniProt P10398, Y301D/Y302D); test: Biochemical Assay for A-Raf (1); conditions: Table J, assay version (1); read-out: ARAF (1) IC50
How it was run: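 IC50 values were derived by four-parameter sigmoidal fitting of percent inhibition, calculated from reaction rates over the 4–5 h window. Absorbance at 340 nm was tracked for 6 h at 30 °C via coupled PK/LDH NADH depletion. Conditions: 1 mM ATP, 30.1 nM MEK substrate, 5.55 nM A-Raf (Y301D/Y302D), Tris pH 7.5, 1% DMSO.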

A375 cells = test: A375 Cell Proliferation Assay (1); format: cell-based; conditions: Homo sapiens, A-375
How it was run: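 Resazurin fluorescence (excitation 540 nm, emission 600 nm, after a further 5-6 h) gave IC50s from triplicate compound dilution series.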

[2] = target: B-Raf kinase (SEQ. ID NO: 2) (Homo sapiens (Human), UniProt P15056); test: Biochemical Assay for B-Raf (1); conditions: Table J, assay version (1); read-out: BRAF (1) IC50
Chain of B-Raf kinase (SEQ. ID NO: 2) (P15056 416-766): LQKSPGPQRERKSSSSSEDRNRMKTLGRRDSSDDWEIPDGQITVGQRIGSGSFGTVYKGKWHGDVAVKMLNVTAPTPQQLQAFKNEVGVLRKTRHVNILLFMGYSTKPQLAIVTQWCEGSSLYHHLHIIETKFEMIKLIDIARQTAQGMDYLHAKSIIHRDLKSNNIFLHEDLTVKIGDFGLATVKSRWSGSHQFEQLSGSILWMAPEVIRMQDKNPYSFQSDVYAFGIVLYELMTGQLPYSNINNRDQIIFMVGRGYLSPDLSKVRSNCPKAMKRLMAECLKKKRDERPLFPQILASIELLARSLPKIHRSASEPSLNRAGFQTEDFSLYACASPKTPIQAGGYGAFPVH
How it was run: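 IC50 derived by four-parameter sigmoidal fit of percent inhibition, normalised to uninhibited and reference-inhibitor controls, using reaction rates over 4–5 h. Coupled spectrophotometric readout (NADH loss at 340 nm, 6 h, 30° C.); 1 mM ATP, 30.1 nM MEK, 0.13 nM B-Raf, pH 7.5 Tris buffer, 1% DMSO.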

[3] = target: C-Raf kinase (SEQ. ID NO: 3) (Homo sapiens (Human), UniProt P04049, Y340D/Y341D); test: Biochemical Assay for C-Raf (1); conditions: Table J, assay version (1); read-out: CRAF (1) IC50
Chain of C-Raf kinase (SEQ. ID NO: 3) (P04049 307-648 Y340D/Y341D): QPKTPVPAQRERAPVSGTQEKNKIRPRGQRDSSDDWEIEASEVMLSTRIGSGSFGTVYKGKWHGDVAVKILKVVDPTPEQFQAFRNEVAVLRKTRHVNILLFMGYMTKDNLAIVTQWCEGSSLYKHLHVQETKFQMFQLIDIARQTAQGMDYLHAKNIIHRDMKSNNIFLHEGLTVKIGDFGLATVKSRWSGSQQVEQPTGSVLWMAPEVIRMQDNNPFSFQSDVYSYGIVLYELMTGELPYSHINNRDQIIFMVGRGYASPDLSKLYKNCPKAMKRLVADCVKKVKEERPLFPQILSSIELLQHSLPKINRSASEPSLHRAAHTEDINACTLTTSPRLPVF
How it was run: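 IC50 values come from a four-parameter fit of percent inhibition, using the reaction rate over 4–5 h of a 6 h continuous 340 nm read at 30 °C. The enzyme mix was C-Raf 0.43 nM, MEK substrate 30.1 nM and ATP 1 mM, in a PK/LDH NADH-coupled format in Tris pH 7.5 with 1% DMSO.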

Chain of A-Raf kinase (SEQ. ID No: 1) (P10398 other isoform, or with tags, fused parts or gaps Y301D (already in the parent)/Y302D (already in the parent)): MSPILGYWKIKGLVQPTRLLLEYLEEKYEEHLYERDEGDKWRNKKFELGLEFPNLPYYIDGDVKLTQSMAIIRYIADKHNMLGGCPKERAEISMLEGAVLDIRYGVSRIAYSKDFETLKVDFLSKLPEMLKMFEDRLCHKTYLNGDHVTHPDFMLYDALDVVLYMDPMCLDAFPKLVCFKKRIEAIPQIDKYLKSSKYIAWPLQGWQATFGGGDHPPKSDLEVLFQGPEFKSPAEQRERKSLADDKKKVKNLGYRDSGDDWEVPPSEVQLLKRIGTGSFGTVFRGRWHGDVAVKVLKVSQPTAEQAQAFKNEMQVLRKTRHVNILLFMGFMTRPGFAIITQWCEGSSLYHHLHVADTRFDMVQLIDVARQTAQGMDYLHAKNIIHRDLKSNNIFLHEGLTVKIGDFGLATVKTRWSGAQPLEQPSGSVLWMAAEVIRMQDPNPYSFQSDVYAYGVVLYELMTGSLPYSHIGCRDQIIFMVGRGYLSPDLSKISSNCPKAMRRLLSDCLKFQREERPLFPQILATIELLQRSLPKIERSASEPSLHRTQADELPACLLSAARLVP

Q: Cc1ccc(NC(=O)c2ccnc(S(C)(=O)=O)c2)cc1-c1cc(-c2ccnc(NC(=O)C3CC3)c2)cnn1 [Example 332] was tested. Which IC50 [1] did it give?
A: Its IC50 is 1000 to 10000 nM.

Q: What about the IC50 (A375 cells) of the same molecule?
A: Its IC50 is 1000 to 10000 nM.

Q: What about the IC50 [2] of the same molecule?
A: The IC50 was at most 100 nM.

Q: And the IC50 [3]?
A: The IC50 was at most 100 nM.

Q: Which IC50 [1] does the source give for CNC(=O)c1cc(-c2cnnc(-c3cc(NC(=O)CCC(C)(C)C#N)cnc3C)c2)ccn1 [Example 333] here?
A: The IC50 was 1000 to 10000 nM.

Q: And the IC50 (A375 cells)?
A: The IC50 was 1000 to 10000 nM.

Q: And the IC50 [2]?
A: Its IC50 is 1000 to 10000 nM.

Q: What about the IC50 [3] of the same molecule?
A: Its IC50 is 1000 to 10000 nM.

Q: CO[C@H]1CC[C@H](C(=O)Nc2ccc(C)c(-c3ccnc(-c4ccnc(NC(=O)C5CC5)c4)n3)c2)CC1 [Example 341] was tested. Which IC50 [1] did it give?
A: Its IC50 is 1000 to 10000 nM.

Q: And the IC50 (A375 cells)?
A: Its IC50 is 1000 to 10000 nM.

Q: And the IC50 [2]?
A: The IC50 was 100 to 500 nM.

Q: What about the IC50 [3] of the same molecule?
A: Its IC50 is at most 100 nM.

Q: What does the source list for Cc1ccc(NC(=O)C2CN(C)CCO2)cc1-c1cccc(-c2cc(NC(=O)C3CC3)ncn2)c1 (stereo not shown) [Example 346]?
A: IC50 [1]: 1000 to 10000 nM; IC50 (A375 cells): 1000 to 10000 nM; IC50 [2]: ≤ 100 nM; IC50 [3]: ≤ 100 nM

Q: For CO[C@H]1CC[C@H](C(=O)Nc2cnc(C)c(-c3cccc(-c4cc(NC(=O)C5CC5)ncn4)c3)c2)CC1 [Example 347], which IC50 [1] is on record?
A: The IC50 was 1000 to 10000 nM.

Q: What about the IC50 (A375 cells) of the same molecule?
A: Its IC50 is 1000 to 10000 nM.

Q: What about the IC50 [2] of the same molecule?
A: Its IC50 is 500 to 1000 nM.

Q: And the IC50 [3]?
A: Its IC50 is 100 to 500 nM.

Q: What does the source list for Cc1ncc(NC(=O)C2CCOC(C)(C)C2)cc1-c1cccc(-c2cc(NC(=O)C3CC3)ncn2)c1 (stereo not shown) [Example 348]?
A: IC50 [1]: 1000 to 10000 nM; IC50 (A375 cells): 1000 to 10000 nM; IC50 [2]: 100 to 500 nM; IC50 [3]: ≤ 100 nM

Q: CNC(=O)c1cc(-c2cc(-c3cc(NC(=O)CCC(C)(C)C#N)ccc3C)ccn2)ccn1 [Example 357] was tested. Which IC50 [1] did it give?
A: Its IC50 is 1000 to 10000 nM.

Q: What about the IC50 (A375 cells) of the same molecule?
A: The IC50 was 1000 to 10000 nM.

Q: And the IC50 [2]?
A: Its IC50 is 100 to 500 nM.

Q: What about the IC50 [3] of the same molecule?
A: Its IC50 is at most 100 nM.

Q: CNC(=O)c1cc(-c2cc(-c3cc(NC(=O)COCC4CC4)ccc3C)ccn2)ccn1 [Example 358] was tested. Which IC50 [1] did it give?
A: Its IC50 is 1000 to 10000 nM.

Q: And the IC50 (A375 cells)?
A: The IC50 was 1000 to 10000 nM.

Q: And the IC50 [2]?
A: The IC50 was at most 100 nM.

Q: And the IC50 [3]?
A: The IC50 was at most 100 nM.

Q: Which results are given for COC(=O)Nc1cc(-c2cnnc(-c3cc(NC(=O)CN4CCCC4)cnc3C)c2)ccn1 [Example 359]?
A: IC50 [1]: 1000 to 10000 nM; IC50 (A375 cells): 1000 to 10000 nM; IC50 [2]: 1000 to 10000 nM; IC50 [3]: 1000 to 10000 nM

Q: Which results are given for COC(=O)Nc1cc(-c2cnnc(-c3cc(NC(=O)COCC4CC4)ccc3C)c2)ccn1 [Example 360]?
A: IC50 [1]: 1000 to 10000 nM; IC50 (A375 cells): 1000 to 10000 nM; IC50 [2]: 500 to 1000 nM; IC50 [3]: 100 to 500 nM

Q: COC(=O)Nc1cc(-c2cnnc(-c3cc(NC(=O)c4ccnc(C(C)(C)F)c4)cnc3C)c2)ccn1 [Example 361] was tested. Which IC50 [1] did it give?
A: Its IC50 is 1000 to 10000 nM.

Q: What about the IC50 (A375 cells) of the same molecule?
A: The IC50 was 1000 to 10000 nM.

Q: And the IC50 [2]?
A: Its IC50 is 100 to 500 nM.

Q: And the IC50 [3]?
A: The IC50 was at most 100 nM.

Q: COC(=O)Nc1cc(-c2cnnc(-c3cc(NC(=O)c4ccnc(C5CC5)c4)cnc3C)c2)ccn1 [Example 362] was tested. Which IC50 [1] did it give?
A: The IC50 was 1000 to 10000 nM.

Q: What about the IC50 (A375 cells) of the same molecule?
A: The IC50 was 1000 to 10000 nM.

Q: And the IC50 [2]?
A: Its IC50 is 100 to 500 nM.

Q: What about the IC50 [3] of the same molecule?
A: The IC50 was at most 100 nM.

Q: Which results are given for COC(=O)Nc1cc(-c2cnnc(-c3cc(NC(=O)c4ccnc(C(F)F)c4)cnc3C)c2)ccn1 [Example 363]?
A: IC50 [1]: 1000 to 10000 nM; IC50 (A375 cells): 1000 to 10000 nM; IC50 [2]: 500 to 1000 nM; IC50 [3]: 100 to 500 nM

Q: CNC(=O)c1cc(-c2cnnc(-c3cc(NC(=O)c4ccnc(C(F)(F)F)c4)ccc3C)c2)ccn1 [Example 364] was tested. Which IC50 [1] did it give?
A: The IC50 was 1000 to 10000 nM.

Q: What about the IC50 (A375 cells) of the same molecule?
A: Its IC50 is 1000 to 10000 nM.

Q: What about the IC50 [2] of the same molecule?
A: The IC50 was 100 to 500 nM.

Q: What about the IC50 [3] of the same molecule?
A: Its IC50 is 100 to 500 nM.

Q: COCCNC(=O)c1cc(-c2cnnc(-c3cc(NC(=O)c4cccc(C5CC5)c4)ccc3C)c2)ccn1 [Example 365] was tested. Which IC50 [1] did it give?
A: Its IC50 is 1000 to 10000 nM.

Q: What about the IC50 (A375 cells) of the same molecule?
A: Its IC50 is 1000 to 10000 nM.

Q: And the IC50 [2]?
A: Its IC50 is 100 to 500 nM.

Q: And the IC50 [3]?
A: Its IC50 is 100 to 500 nM.

Q: CNC(=O)c1cc(-c2cnnc(-c3cc(NC(=O)c4cn(C(C)(C)C)nn4)ccc3C)c2)ccn1 [Example 366] was tested. Which IC50 [1] did it give?
A: Its IC50 is 1000 to 10000 nM.

Q: And the IC50 (A375 cells)?
A: The IC50 was 1000 to 10000 nM.

Q: And the IC50 [2]?
A: The IC50 was 100 to 500 nM.

Q: And the IC50 [3]?
A: Its IC50 is 100 to 500 nM.

Q: How did the IC50 [1] turn out when Cc1ccc(NC(=O)c2cc(C(C)(C)C)no2)cc1-c1cc(-c2ccnc(NC(=O)C3CC3)c2)cnn1 [Example 367] was run?
A: Its IC50 is 1000 to 10000 nM.

Q: And the IC50 (A375 cells)?
A: Its IC50 is 100 to 500 nM.

Q: What about the IC50 [2] of the same molecule?
A: The IC50 was at most 100 nM.

Q: And the IC50 [3]?
A: The IC50 was at most 100 nM.

Q: Which IC50 [1] does the source give for COC(=O)Nc1cc(-c2cnnc(-c3cc(NC(=O)CC4CCCC4)cnc3C)c2)ccn1 [Example 368] here?
A: The IC50 was 1000 to 10000 nM.

Q: What about the IC50 (A375 cells) of the same molecule?
A: The IC50 was 1000 to 10000 nM.

Q: What about the IC50 [2] of the same molecule?
A: The IC50 was 1000 to 10000 nM.

Q: What about the IC50 [3] of the same molecule?
A: The IC50 was 1000 to 10000 nM.

Q: Which IC50 [1] does the source give for Cc1ccc(NC(=O)c2ccnc(C(C)(C)C#N)c2)cc1-c1cc(-c2ccnc3[nH]ccc23)cnn1 [Example 369] here?
A: The IC50 was 1000 to 10000 nM.

Q: What about the IC50 (A375 cells) of the same molecule?
A: The IC50 was 1000 to 10000 nM.

Q: And the IC50 [2]?
A: Its IC50 is at most 100 nM.

Q: And the IC50 [3]?
A: Its IC50 is at most 100 nM.

Q: What does the source list for Cc1ccc(NC(=O)C2CCOC(C(C)C)C2)cc1-c1cc(-c2ccnc(NC(=O)C3CC3)c2)cnn1 (stereo not shown) [Example 370]?
A: IC50 [1]: 1000 to 10000 nM; IC50 (A375 cells): 1000 to 10000 nM; IC50 [2]: ≤ 100 nM; IC50 [3]: ≤ 100 nM

Q: What does the source list for CNC(=O)c1cc(-c2cc(-c3cc(NC(=O)c4ccnc(C(C)(C)F)c4)ccc3C)cnc2C)ccn1 [Example 371]?
A: IC50 [1]: 1000 to 10000 nM; IC50 (A375 cells): 100 to 500 nM; IC50 [2]: 100 to 500 nM; IC50 [3]: 100 to 500 nM

Q: Cc1ccc(NC(=O)c2ccnc(C(C)(C)C#N)c2)cc1-c1cc(-c2ccnc(C(=O)NC3CC3)c2)cnn1 [Example 372] was tested. Which IC50 [1] did it give?
A: The IC50 was 1000 to 10000 nM.

Q: What about the IC50 (A375 cells) of the same molecule?
A: The IC50 was 1000 to 10000 nM.

Q: What about the IC50 [2] of the same molecule?
A: Its IC50 is 1000 to 10000 nM.

Q: And the IC50 [3]?
A: Its IC50 is 500 to 1000 nM.
